We go through 30 molecules from patent US11136313B2, “Compounds, compositions, and methods for modulating CFTR” (Proteostasis Therapeutics, Inc., priority 2015, dated 2021).

This assay has as its target T1, ΔF508-CFTR (Homo sapiens, UniProt P13569, DEL508-508).
T1 construct: Primary lung epithelial cells homozygous for the Cystic Fibrosis-causing ΔF508 mutation were differentiated for a minimum of 4 weeks; endogenous in cells; host or cells: primary lung epithelial cells (hBE) homozygous for ΔF508, differentiated at an air-liquid interface
Nature of the assay: hBE equivalent current (Ieq) assay: AUC of equivalent chloride current after forskolin/VX-770 in primary lung epithelial cells homozygous for ΔF508. In kind it is cell-based. The settings on record: relative to CFTR amplifier (Compound A)+VX-809 (3 uM), compound at 10 uM and Compound A at 3 uM, 24 h treatment. The method, boiled down: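 ΔF508/ΔF508 primary human bronchial epithelia, differentiated ≥4 weeks at air-liquid interface, treated basolaterally with compound for 24 h at 37 °C. Transepithelial voltage and conductance by 24-channel current clamp at 36 °C: benzamil, then forskolin plus VX-770 for 27 min, then bumetanide; AUC of equivalent chloride current over vehicle.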

T1 sequence (P13569 with tags, fused parts or gaps DEL508-508): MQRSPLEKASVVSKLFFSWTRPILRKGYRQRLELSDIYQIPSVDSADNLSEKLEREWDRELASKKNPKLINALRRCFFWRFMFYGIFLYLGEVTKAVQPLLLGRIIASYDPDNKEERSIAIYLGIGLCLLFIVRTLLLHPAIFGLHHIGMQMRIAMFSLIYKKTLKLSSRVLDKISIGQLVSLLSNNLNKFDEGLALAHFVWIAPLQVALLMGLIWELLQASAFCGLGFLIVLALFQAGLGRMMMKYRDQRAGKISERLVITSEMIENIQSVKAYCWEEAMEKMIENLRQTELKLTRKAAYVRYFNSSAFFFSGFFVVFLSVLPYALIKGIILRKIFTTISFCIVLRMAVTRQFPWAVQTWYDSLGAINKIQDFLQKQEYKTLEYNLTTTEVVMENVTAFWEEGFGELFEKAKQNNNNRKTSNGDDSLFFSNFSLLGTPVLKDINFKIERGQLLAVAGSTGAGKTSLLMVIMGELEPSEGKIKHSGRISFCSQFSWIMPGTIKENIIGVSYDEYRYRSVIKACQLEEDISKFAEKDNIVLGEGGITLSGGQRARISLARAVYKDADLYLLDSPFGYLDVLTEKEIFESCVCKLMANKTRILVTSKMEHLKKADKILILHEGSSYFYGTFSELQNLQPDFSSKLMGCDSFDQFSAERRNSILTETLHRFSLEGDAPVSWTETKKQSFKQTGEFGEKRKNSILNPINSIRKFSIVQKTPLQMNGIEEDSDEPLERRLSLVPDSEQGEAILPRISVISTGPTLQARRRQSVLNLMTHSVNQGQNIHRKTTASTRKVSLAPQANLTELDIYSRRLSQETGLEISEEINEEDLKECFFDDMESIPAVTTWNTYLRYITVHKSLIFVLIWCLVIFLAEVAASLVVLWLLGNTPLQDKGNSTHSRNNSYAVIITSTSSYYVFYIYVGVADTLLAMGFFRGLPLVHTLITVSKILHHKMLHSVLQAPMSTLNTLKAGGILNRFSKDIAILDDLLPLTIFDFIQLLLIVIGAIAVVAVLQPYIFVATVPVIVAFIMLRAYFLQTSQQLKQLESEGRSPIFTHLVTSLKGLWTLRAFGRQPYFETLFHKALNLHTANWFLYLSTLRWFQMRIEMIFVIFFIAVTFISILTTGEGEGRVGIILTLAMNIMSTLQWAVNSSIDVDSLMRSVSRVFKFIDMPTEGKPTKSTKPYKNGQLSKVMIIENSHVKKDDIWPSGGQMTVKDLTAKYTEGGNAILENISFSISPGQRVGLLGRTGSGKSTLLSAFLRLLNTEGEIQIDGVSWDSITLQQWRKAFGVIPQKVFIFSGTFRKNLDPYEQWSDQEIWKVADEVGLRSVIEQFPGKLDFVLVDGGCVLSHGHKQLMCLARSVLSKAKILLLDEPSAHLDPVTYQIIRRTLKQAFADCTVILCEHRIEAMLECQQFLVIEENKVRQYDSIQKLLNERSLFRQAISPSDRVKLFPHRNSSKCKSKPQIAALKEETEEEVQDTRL

Regarding `Cc1c(-c2cc(C(=O)[O-])c3c(O[C@@H](C)c4ccc(S(N)(=O)=O)cc4)ccc(C)c3n2)oc2ccccc12.[Na+]` [Compound 238, Sodium 8-Methyl-2-(3-methyl-1-benzofuran-2-yl)-5-[(1S)-1-(4-sulfamoylphenyl)ethoxy]quinoline-4-carboxylate], the Activity result is “++ (activity>50% of CFTR amplifier+VX-809 (3 uM) with compound at 10 uM and Compound A at 3 uM)”.
Consider `Cc1c(-c2cc(C(=O)[O-])c3c(O[C@H]4C[C@H]5CC[C@@H](C4)O5)ccc(C)c3n2)oc2ccccc12.[Na+]` [Compound 355], for which the Activity entry is “++ (activity>50% of CFTR amplifier+VX-809 (3 uM) with compound at 10 uM and Compound A at 3 uM)”.
As to `Cc1ccc(OCc2ccccc2)c2c(C(=O)O)cc(-c3snc4ccccc34)nc12` [Compound 86, 2-(2,1-Benzothiazol-3-yl)-5-(benzyloxy)-8-methylquinoline-4-carboxylic Acid], the Activity result was “++ (activity>50% of CFTR amplifier+VX-809 (3 uM) with compound at 10 uM and Compound A at 3 uM)”.
The entry for `Cc1c(-c2cc(C(=O)O)c3cc(OC(F)F)cc(C)c3n2)oc2ccccc12` [Compound 118, 6-(Difluoromethoxy)-8-methyl-2-(3-methyl-1-benzofuran-2-yl)quinoline-4-carboxylic acid] is “++ (activity>50% of CFTR amplifier+VX-809 (3 uM) with compound at 10 uM and Compound A at 3 uM)”; for `Cc1c(-c2cc(C(=O)[O-])c3c(OC4CC5(COC5)C4)ccc(C)c3n2)oc2ccccc12.[Na+]` [Compound 369] it is “++ (activity>50% of CFTR amplifier+VX-809 (3 uM) with compound at 10 uM and Compound A at 3 uM)”.
As for `CCc1ccc(OCc2ccccc2)c2c(C(=O)O)cc(-c3[nH]c4ccccc4c3C)nc12` [Compound 146, 5-(Benzyloxy)-8-ethyl-2-(3-methyl-1H-indol-2-yl)quinoline-4-carboxylic acid], the Activity entry is “++ (activity>50% of CFTR amplifier+VX-809 (3 uM) with compound at 10 uM and Compound A at 3 uM)”.
Regarding `Cc1c(-c2cc(C(=O)O)c3c(C)ccc(C)c3n2)oc2c(Cl)cccc12` [Compound 129, 2-(7-Chloro-3-methylbenzofuran-2-yl)-5,8-dimethylquinoline-4-carboxylic acid], the Activity result is “+ (activity<50% of an CFTR amplifier (Compound A)+VX-809 (3 uM) with compound at 10 uM and Compound A at 3 uM)”.
Consider `Cc1cc2c(C(=O)O)cc(-c3oc4ccccc4c3C)nc2cc1OCc1ccccc1` [Compound 41, 7-(Benzyloxy)-6-methyl-2-(3-methyl-1-benzofuran-2-yl)quinoline-4-carboxylic acid], for which the Activity result is “+ (activity<50% of an CFTR amplifier (Compound A)+VX-809 (3 uM) with compound at 10 uM and Compound A at 3 uM)”.
With `Cc1ccc([C@H](C)Oc2ccc(C)c3nc(-c4sc5ccccc5c4C)cc(C(=O)[O-])c23)cc1.[Na+]` [Compound 227, Sodium 8-Methyl-2-(3-methyl-1-benzothiophen-2-yl)-5-[(1S)-1-(4-methylphenyl)ethoxy]quinoline-4-carboxylate], the Activity result is “++ (activity>50% of CFTR amplifier+VX-809 (3 uM) with compound at 10 uM and Compound A at 3 uM)”.
With `CCc1ccc(OCc2ccc([S+](C)[O-])cc2)c2c(C(=O)O)cc(-c3oc4ccccc4c3C)nc12` (stereo not drawn) [Compound 144, 8-Ethyl-5-[(4-methanesulfinylphenyl)methoxy]-2-(3-methyl-1-benzofuran-2-yl)quinoline-4-carboxylic acid], the Activity entry was “++ (activity>50% of CFTR amplifier+VX-809 (3 uM) with compound at 10 uM and Compound A at 3 uM)”.
With `Cc1c(-c2cc(C(=O)[O-])c3c(OC[C@H]4C[C@H]5CC[C@@H](C4)O5)ccc(C)c3n2)sc2ccccc12.[Na+]` [Compound 359], the Activity entry was “++ (activity>50% of CFTR amplifier+VX-809 (3 uM) with compound at 10 uM and Compound A at 3 uM)”.
Consider `Cc1c(-c2cc(C(=O)[O-])c3c(O[C@H]4CCC[C@H](c5ccccc5)C4)ccc(C)c3n2)oc2ccccc12.[Na+]` [Compound 302], for which the Activity result is “++ (activity>50% of CFTR amplifier+VX-809 (3 uM) with compound at 10 uM and Compound A at 3 uM)”.
The entry for `Cc1c(-c2cc(C(=O)[O-])c3c(OC(C)c4ccc(C5COC5)cc4)ccc(C)c3n2)sc2ccccc12.[Na+]` (stereo not drawn) [Compound 373] is “++ (activity>50% of CFTR amplifier+VX-809 (3 uM) with compound at 10 uM and Compound A at 3 uM)”; for `Cc1c(-c2cc(C(=O)O)c3c(C)ccc(C)c3n2)oc2ccccc12` [Compound 31, 5,8-Dimethyl-2-(3-methyl-1-benzofuran-2-yl)quinoline-4-carboxylic acid] it is “++ (activity>50% of CFTR amplifier+VX-809 (3 uM) with compound at 10 uM and Compound A at 3 uM)”.
With `Cc1c(-c2cc(C(=O)[O-])c3c(OC[C@H]4CC[C@](C)(O)CC4)ccc(C)c3n2)oc2ccccc12.[Na+]` [Compound 377] the entry was “++ (activity>50% of CFTR amplifier+VX-809 (3 uM) with compound at 10 uM and Compound A at 3 uM)”.
Take `Cc1c(-c2cc(C(=O)O)c3c(OCc4ccccn4)ccc(C)c3n2)oc2ccccc12` [Compound 115, 8-Methyl-2-(3-methyl-1-benzofuran-2-yl)-5-(pyridin-2-ylmethoxy)quinoline-4-carboxylic acid]: the Activity entry is “+ (activity<50% of an CFTR amplifier (Compound A)+VX-809 (3 uM) with compound at 10 uM and Compound A at 3 uM)”.
With `Cc1c(-c2cc(C(=O)O)c3c(C)ccc(OCc4ccccc4)c3n2)oc2ccccc12` [Compound 40, 8-(Benzyloxy)-5-methyl-2-(3-methyl-1-benzofuran-2-yl)quinoline-4-carboxylic acid] the entry was “+ (activity<50% of an CFTR amplifier (Compound A)+VX-809 (3 uM) with compound at 10 uM and Compound A at 3 uM)”.
Turning to `CCc1ccc(OCc2ccccc2)c2c(C(=O)O)cc(-c3oc4ccccc4c3C)nc12` [Compound 108, 5-(benzyloxy)-8-ethyl-2-(3-methyl-1-benzofuran-2-yl)quinoline-4-carboxylic acid], the Activity entry is “++ (activity>50% of CFTR amplifier+VX-809 (3 uM) with compound at 10 uM and Compound A at 3 uM)”.
With `Cc1c(-c2cc(C(=O)O)c3c(OC(F)F)ccc(C)c3n2)oc2ccccc12` [Compound 120, 5-(Difluoromethoxy)-8-methyl-2-(3-methyl-1-benzofuran-2-yl)quinoline-4-carboxylic acid], the Activity entry was “++ (activity>50% of CFTR amplifier+VX-809 (3 uM) with compound at 10 uM and Compound A at 3 uM)”.
The entry for `Cc1c(-c2cc(C(=O)O)c3cc(C4CC4)cc(C)c3n2)oc2ccccc12` [Compound 28, 6-Cyclopropyl-8-methyl-2-(3-methyl-1-benzofuran-2-yl)quinoline-4-carboxylic Acid] is “++ (activity>50% of CFTR amplifier+VX-809 (3 uM) with compound at 10 uM and Compound A at 3 uM)”.
In the case of `Cc1c(-c2cc(C(=O)O)c3c(OCc4ccccc4)ccc(C)c3n2)sc2ccccc12` [Compound 33, 5-(Benzyloxy)-8-methyl-2-(3-methyl-1-benzothiophen-2-yl)quinoline-4-carboxylic acid], the Activity result was “++ (activity>50% of CFTR amplifier+VX-809 (3 uM) with compound at 10 uM and Compound A at 3 uM)”.
As to `CCc1ccc(O[C@@H]2CCC[C@@H](C)C2)c2c(C(=O)O)cc(-c3csc4ccccc34)nc12` [Compound 184, 2-(Benzo[b]thiophen-3-yl)-8-ethyl-5-(((1R,3R)-3-methylcyclohexyl)oxy)quinoline-4-carboxylic Acid], the Activity result is “++ (activity>50% of CFTR amplifier+VX-809 (3 uM) with compound at 10 uM and Compound A at 3 uM)”.
Regarding `Cc1c(-c2cc(C(=O)[O-])c3c(OCC4COC4)ccc(C)c3n2)oc2ccccc12.[Na+]` [Compound 343], the Activity entry was “++ (activity>50% of CFTR amplifier+VX-809 (3 uM) with compound at 10 uM and Compound A at 3 uM)”.
The entry for `Cc1c(-c2cc(C(=O)[O-])c3c(OCc4ccccc4C#N)ccc(C)c3n2)sc2ccccc12.[Na+]` [Compound 280] is “++ (activity>50% of CFTR amplifier+VX-809 (3 uM) with compound at 10 uM and Compound A at 3 uM)”.
As for `Cc1c(-c2cc(C(=O)[O-])c3c(OC[C@H]4CC[C@@](C)(O)CC4)ccc(C)c3n2)sc2ccccc12.[Na+]` [Compound 322], the Activity result was “++ (activity>50% of CFTR amplifier+VX-809 (3 uM) with compound at 10 uM and Compound A at 3 uM)”.
As to `CCc1ccc(OCc2cccc(S(C)(=O)=O)c2)c2c(C(=O)O)cc(-c3oc4ccccc4c3C)nc12` [Compound 143, 8-Ethyl-5-[(3-methanesulfonylphenyl)methoxy]-2-(3-methyl-1-benzofuran-2-yl)quinoline-4-carboxylic Acid], the Activity entry is “++ (activity>50% of CFTR amplifier+VX-809 (3 uM) with compound at 10 uM and Compound A at 3 uM)”.
As to `Cc1c(-c2cc(C(=O)[O-])c3c(O[C@H]4CCC[C@H](C)C4)ccc(C)c3n2)sc2ccccc12.[Na+]` [Compound 220, Sodium 8-Methyl-2-(3-methyl-1-benzothiophen-2-yl)-5-[[(1S,3S)-3-methylcyclohexyl]oxy]quinoline-4-carboxylate], the Activity result was “++ (activity>50% of CFTR amplifier+VX-809 (3 uM) with compound at 10 uM and Compound A at 3 uM)”.
On to `Cc1c(-c2cc(C(=O)[O-])c3c(OCc4ccc5c(c4)OCO5)ccc(C)c3n2)sc2ccccc12.[Na+]` [Compound 295, Sodium 5-(2H-1,3-Benzodioxol-5-ylmethoxy)-8-methyl-2-(3-methyl-1-benzothiophen-2-yl)quinoline-4-carboxylate], for which the Activity entry was “++ (activity>50% of CFTR amplifier+VX-809 (3 uM) with compound at 10 uM and Compound A at 3 uM)”.
As to `Cc1c(-c2cc(C(=O)O)c3cc(-c4ccccc4)cc(C)c3n2)oc2ccccc12` [Compound 37], the Activity result was “++ (activity>50% of CFTR amplifier+VX-809 (3 uM) with compound at 10 uM and Compound A at 3 uM)”.
In the case of `Cc1c(-c2cc(C(=O)[O-])c3c(OCC4COC4)ccc(C)c3n2)sc2ccccc12.[Na+]` [Compound 346], the Activity entry was “++ (activity>50% of CFTR amplifier+VX-809 (3 uM) with compound at 10 uM and Compound A at 3 uM)”.
